This note sets out measurements from PMC5545217 (Nature Communications, 2017).

“Also recorded” adds a separate entry of the source.

The target in this assay is D216V ATP-PRT (Mycobacterium tuberculosis, UniProt P9WMN1, D216V). Type of assay: biochemical.

On to `N[C@@H](Cc1c[nH]cn1)C(=O)O` [L-His, L-histidine, reference compound], for which the “Inhibition of D216V ATP-PRT” value is reported as “no longer inhibited by L-His; also recorded: did not change D216 V activity”.
As for `N[C@@H](Cc1cccs1)C(=O)O` [TIH, 3-(2-thienyl)-L-alanine], the “Activation of D216V ATP-PRT” value is on record as “still activated by TIH”.
